Reference: patent US20220098197A1, “SALTS OF HETEROCYCLIC COMPOUND AND USE THEREOF” (priority 2019, published 2022)
Where “and” joins values, the source holds several entries; their conditions need not be identical. Identical values can stand only once.

How the values were obtained:
[1] = Dissolution test of capsules (Chinese Pharmacopoeia 2015, General Method 0931, 2nd Method); type: physicochemical
Protocol: The hydrates obtained hereinabove and the compound of formula A were tested for dissolution rate. The test method was as follows.
Step 1: Pretreating Raw Materials
The samples were passed through a 100 mesh sieve.
Step 2: Blending Raw Materials with Auxiliary Materials
The raw materials and lactose were weighed according to the prescription, mixed in equal increment, sieved and mixed.
The capsules were filled via a capsule filling plate and sealed. The difference of the filling amount was controlled to ±5%. The appearance was inspected to ensure that the sealing was correct and there was no split or deformation.
Test method: dissolution test method (Chinese Pharmacopoeia, edited in 2015, Chapter 4, General Method 0931, the 2nd Method)
Dissolution medium: aqueous solution
Specific test method: The sample was tested following the dissolution test method (Chinese Pharmacopoeia, edited in 2015, Chapter 4, General Method 0931, the 2nd Method). 900 ml aqueous solution was used as the dissolution medium. The speed was 50 rpm. The test was performed in accordance with the method. […] After filtration, the filtrate was precisely measured and quantitatively diluted with the dissolution medium to prepare a solution containing about 10 μg of sample per 1 ml. The absorbance was measured by at 231 nm by UV-Vis spectrophotometry (Chinese Pharmacopoeia, edited in 2015, Chapter 4, General Method 0931, the 2nd Method). An appropriate amount of the control sample was taken, weighed accurately, dissolved in dissolution medium and diluted quantitatively to prepare a solution containing about 10 μg of the sample per 1 ml, and then measured in the same way. The amount of dissolution per capsule was calculated.

CS-induced ALI mice = assay: CS-induced lung injury model: partial pressure of oxygen (PO2); type: in vivo, Balb/c mice; details: CT-NA 10 and 30 mg/kg intragastric; 24 hrs after last CS exposure; p<0.01
Protocol: Specific pathogen-free (SPF) female Balb/c mice (22-28 g; aged 8 weeks) were purchased from Shanghai SIPPR-BK Experimental Animal Co., Ltd. […] Model preparation: The mice were randomly divided into 5 groups (12 mice in each group), which were the control group (the mice were exposed to fresh air), the saline group (the mice were exposed to cigarette smoke), dexamethasone (Dex) group (1 mg/kg) (the mice were exposed to cigarette smoke), CT-NA 10 mg/kg group and CT-NA 30 mg/kg group (the mice were exposed to cigarette smoke). According to the grouping, the mice were intragastrically administered saline, Dex and CT-NA, respectively. Thereafter, the mice were exposed to fresh air or cigarette smoke generated from 3R4F research-grade cigarettes (containing about 600 mg TPM/m^3 and 29.9 mg nicotine/m^3) in a cuboid plastic box (65×50x×45 cm). Ten cigarettes were burned every day for seven days. After one cigarette was burned, the next cigarette was ignited. The daily body weight and general condition of the mice were checked. 24 hrs after the last exposure to the cigarette smoke, the partial pressure of oxygen (PO2) of all mice was measured by the Moor VMS-OXY™ measuring instrument, which was used to measure the oxygenated/deoxygenated hemoglobin concentration and oxygen saturation (percentage) in the microcirculation at the wavelength range of 500 to 650 nm. […]

[2] = system: NF-κB signalling pathway in RAW264.7 macrophages; assay: Western blotting of NF-κB signalling pathway, RAW264.7; type: cell-based, mouse; details: CT-NA 0.5, 1.0, 10, or 100 μM, LPS (100 ng/ml)
Protocol: The method for total protein extraction and Western blotting determination was as follows. The lung tissue was homogenized in RIPA buffer (0.5M Tris-HCl, pH 7.4, 1.5M NaCl, 2.5% deoxycholic acid, 10% NP-40, 10 mM EDTA) containing protease and phosphatase inhibitors (Sigma-Aldrich, St. Louis, Mo.). RAW264.7 macrophages were seeded into two 6-well plates at 70-80% confluence. After overnight starvation with serum-free RPMI-1640 medium, RAW264.7 macrophages were pretreated with CT-NA (0.5, 1, 10 and 100 μM) for 1 hour. Thereafter, one 6-well plate was treated with LPS (100 ng/ml) for 1 hour, and the other was treated with PGD2 (10 μM) for 1 hour. After washing three times with PBS, the cells were directly lysed for 30 minutes with shaking in RIPA buffer containing protease and phosphatase inhibitors in an ice environment. Then, the lysate was centrifuged at 12,300×g for 15 minutes at 4° C., and the supernatant was collected. […] was performed to measure protein concentration. Equal amounts of protein (30 μg) were resolved on 12% SDS-PAGE and transferred to 0.45 um polyvinylidene fluoride (PVDF) membranes (Millipore, Bedford, Mass.). The membranes were blocked with 5% (wt/vol) skimmed milk powder at room temperature for 1-2 hrs to reduce non-specific binding. […]

Q: For `CN([C@@H]1CCc2c(CC(=O)[O-])c3cccnc3n2C1)S(=O)(=O)c1ccc(F)cc1.[Na+]` [Sodium salt hydrate], which “Dissolution rate, Mean (%), 5 min” value ([1]; mean of 6 capsules, purified water, 50 rpm, 5 min) is on record?
A: 50.5%

Q: What about the “Dissolution rate, Mean (%), 10 min” value ([1]; mean of 6 capsules, purified water, 50 rpm, 10 min) of the same compound?
A: 76.6%

Q: And the “Dissolution rate, Mean (%), 15 min” value ([1]; mean of 6 capsules, purified water, 50 rpm, 15 min)?
A: 92.1%

Q: What about the “Dissolution rate, Mean (%), 20 min” value ([1]; mean of 6 capsules, purified water, 50 rpm, 20 min) of the same compound?
A: 98.6%

Q: What about the “Dissolution rate, Mean (%), 30 min” value ([1]; mean of 6 capsules, purified water, 50 rpm, 30 min) of the same compound?
A: 100.6%

Q: And the “Dissolution rate, Mean (%), 45 min” value ([1]; mean of 6 capsules, purified water, 50 rpm, 45 min)?
A: 100.8%

Q: And the “dissolution rate (in words)” value ([1]; same method, aqueous dissolution medium)?
A: best dissolution rate

Q: And the “Dissolution rate, 5 min” value ([1]; single capsules 1-6, purified water, 50 rpm, 5 min, hydrate)?
A: 55.8% and 34.3% and 57.9% and 45.5% and 56.7% and 52.8%

Q: What about the “Dissolution rate, 10 min” value ([1]; single capsules 1-6, purified water, 50 rpm, 10 min, hydrate) of the same compound?
A: 77.8% and 82.6% and 69.0% and 73.6% and 62.2% and 94.6%

Q: And the “Dissolution rate, 15 min” value ([1]; single capsules 1-6, purified water, 50 rpm, 15 min, hydrate)?
A: 96.6% and 79.1% and 91.7% and 93.3% and 99.1% and 92.7%

Q: What about the “Dissolution rate, 20 min” value ([1]; single capsules 1-6, purified water, 50 rpm, 20 min, hydrate) of the same compound?
A: 101.8% and 94.8% and 96.2% and 98.3% and 100.1% and 100.2%

Q: And the “Dissolution rate, 30 min” value ([1]; single capsules 1-6, purified water, 50 rpm, 30 min, hydrate)?
A: 103.4% and 100.7% and 98.0% and 99.1% and 102.2% and 100.2%

Q: And the “Dissolution rate, 45 min” value ([1]; single capsules 1-6, purified water, 50 rpm, 45 min, hydrate)?
A: 102.8% and 101.5% and 97.5% and 99.7% and 102.7% and 100.9%

Q: What about the “partial pressure of oxygen (PO2)” value (CS-induced ALI mice) of the same compound?
A: significantly elevated

Q: And the “degradation of IκBα and P65 induced by LPS” value [2]?
A: strongly reversed

Q: What about the “LPS-induced IκBα and P65 activation” value ([2]; dose-dependent) of the same compound?
A: reduced
